Data on 17 molecules can be found in patent publication US10428017B2, “Modulators of the cystic fibrosis transmembrane conductance regulator protein and methods of use” (AbbVie S.à.r.l., priority 2017, dated 2019).

The assay has as its target T1, F508delCFTR (Homo sapiens, UniProt P13569, DEL508-508).
T1 construct: expressed in transfected cells; host or cells: CFBE4lo-F508delCFTR-HRP cells (human lung derived epithelial cell line, doxycycline-inducible)
The experiment in a line: Cell Surface Expression-Horse Radish Peroxidase (CSE-HRP) Assay. The format is cell-based. The settings on record: for EC50: CFBE4lo-F508delCFTR-HRP cells, 18-24 hours at 33° C.; for Emax / Maximum % activity (with co-corrector): maximum at any tested concentration (up to 20 μM), normalized to on-plate positive control (2 μM co-corrector); for Maximum % activity (with co-corrector): with co-corrector 2 μM. Here is the method: Cell Surface Expression-Horse Radish Peroxidase (CSE-HRP) Assay
A cellular assay for measuring the F508delCFTR cell surface expression after correction with test compounds either without or with a co-corrector (2 μM of 3-[(2R,4R)-4-({[1-(2,2-difluoro-1,3-benzodioxol-5-yl)cyclopropyl]carbonyl}amino)-7-methoxy-3,4-dihydro-2H-chromen-2-yl]benzoic acid), was developed in human lung derived epithelial cell line (CFBE4lo−) (Veit G et al, (2012) Mol Biol Cell. 23(21): 4188-4202). The development was achieved by expressing the F508delCFTR mutation along with a horseradish peroxidase (HRP) in the fourth exofacial loop, and then measuring the HRP activity using luminescence readout from these cells, CFBE4lo-F508delCFTR-HRP, that were incubated overnight with the test corrector compounds, either without or with the co-corrector. For this primary assay, the CFBE4lo-F508delCFTR-HRP cells were plated in 384-well plates (Greiner Bio-one; Cat 781080) at 4,000 cells/well along with 0.5 μg/mL doxycycline to induce the F508delCFTR-HRP expression and further incubated at 37° C., 5% CO2 for 72 hours. The test compounds were then added either without or with a co-corrector at the required concentrations and further incubated for 18-24 hours at 33° C. The highest concentration tested was 20 μM with an 8-point concentration response curve using a 3-fold dilution in both the test compound without or with the co-corrector. Three replicate plates were run to determine one EC50. All plates contained negative controls (dimethyl sulfoxide, DMSO) and positive control (2 μM of 3-[(2R,4R)-4-({[1-(2,2-difluoro-1,3-benzodioxol-5-yl)cyclopropyl]carbonyl}amino)-7-methoxy-3,4-dihydro-2H-chromen-2-yl]benzoic acid) as well as on-plate concentration response of the positive control. Post incubation, the plates were washed 5× times with Dulbecco's phosphate buffered saline (DPBS), followed by the addition of the HRP substrate, luminol (50 μL), and measuring the HRP activity using luminescence readout on EnVision® Multilabel Plate Reader (Perkin Elmer; product number 2104-0010). The raw counts from the experiment were analyzed using Accelrys® Assay Explorer v3.3.
Z′ greater than 0.5 was used as passing quality control criteria for the plates.
The Z′ is defined as: 1−[3*SDPositive Control+3*SDNegative Control/Absolute(Meanpostivie Control−MeanNegative Control)] wherein “SD” is standard deviation.
The % activity measured at each of the 8 test concentrations of the test compound added either without or with a co-corrector (2 μM of 3-[(2R,4R)-4-({[1-(2,2-difluoro-1,3-benzodioxol-5-yl)cyclopropyl]carbonyl}amino)-7-methoxy-3,4-dihydro-2H-chromen-2-yl]benzoic acid) was normalized to the on-plate positive control using the following formulae: % activity(Test compound without co-corrector)=[(test compound without co-corrector response−DMSO response)/(positive control response−DMSO response)]*100 % activity(Test compound with co-corrector)=[(test compound with co-corrector response−DMSO response)/(positive control response−DMSO response)]*100
The maximum % activity achieved for the test compound either without or with a co-corrector at any tested concentration is presented in Table 1 along with the respective EC50's calculated using the following general sigmoidal curve with variable Hill slope equation (described as Model 42 in the Accelrys® Assay Explorer v3.3 software): y=(a−d)/(1+(x/c)^b)+d
General sigmoidal curve with concentration, response, top, bottom, EC50 and Hill slope. This model describes a sigmoidal curve with an adjustable baseline, a. The equation can be used to fit curves where response is either increasing or decreasing with respect to the independent variable, “x”.
“x” is a concentration of drug under test.
“a” is the maximum response, and “d” is the minimum response
“c” is the inflection point (EC50) for the curve. That is, “y” is halfway between the lower and upper asymptotes when x=c.
“b” is the slope-factor or Hill coefficient. […]

Where [1] appears, read: test compound without co-corrector, HRP luminescence readout, read-out: EC50 (without co-corrector).
Where [2] appears, read: test compound without co-corrector.
Setting [3] is: with co-corrector 2 μM 3-[(2R,4R)-4-({[1-(2,2-difluoro-1,3-benzodioxol-5-yl)cyclopropyl]carbonyl}amino)-7-methoxy-3,4-dihydro-2H-chromen-2-yl]benzoic acid, read-out: EC50 (with co-corrector).

Molecules are shown by their SMILES. Like-named read-outs stand apart in the source and are kept apart here.

T1 sequence (P13569 with tags, fused parts or gaps DEL508-508): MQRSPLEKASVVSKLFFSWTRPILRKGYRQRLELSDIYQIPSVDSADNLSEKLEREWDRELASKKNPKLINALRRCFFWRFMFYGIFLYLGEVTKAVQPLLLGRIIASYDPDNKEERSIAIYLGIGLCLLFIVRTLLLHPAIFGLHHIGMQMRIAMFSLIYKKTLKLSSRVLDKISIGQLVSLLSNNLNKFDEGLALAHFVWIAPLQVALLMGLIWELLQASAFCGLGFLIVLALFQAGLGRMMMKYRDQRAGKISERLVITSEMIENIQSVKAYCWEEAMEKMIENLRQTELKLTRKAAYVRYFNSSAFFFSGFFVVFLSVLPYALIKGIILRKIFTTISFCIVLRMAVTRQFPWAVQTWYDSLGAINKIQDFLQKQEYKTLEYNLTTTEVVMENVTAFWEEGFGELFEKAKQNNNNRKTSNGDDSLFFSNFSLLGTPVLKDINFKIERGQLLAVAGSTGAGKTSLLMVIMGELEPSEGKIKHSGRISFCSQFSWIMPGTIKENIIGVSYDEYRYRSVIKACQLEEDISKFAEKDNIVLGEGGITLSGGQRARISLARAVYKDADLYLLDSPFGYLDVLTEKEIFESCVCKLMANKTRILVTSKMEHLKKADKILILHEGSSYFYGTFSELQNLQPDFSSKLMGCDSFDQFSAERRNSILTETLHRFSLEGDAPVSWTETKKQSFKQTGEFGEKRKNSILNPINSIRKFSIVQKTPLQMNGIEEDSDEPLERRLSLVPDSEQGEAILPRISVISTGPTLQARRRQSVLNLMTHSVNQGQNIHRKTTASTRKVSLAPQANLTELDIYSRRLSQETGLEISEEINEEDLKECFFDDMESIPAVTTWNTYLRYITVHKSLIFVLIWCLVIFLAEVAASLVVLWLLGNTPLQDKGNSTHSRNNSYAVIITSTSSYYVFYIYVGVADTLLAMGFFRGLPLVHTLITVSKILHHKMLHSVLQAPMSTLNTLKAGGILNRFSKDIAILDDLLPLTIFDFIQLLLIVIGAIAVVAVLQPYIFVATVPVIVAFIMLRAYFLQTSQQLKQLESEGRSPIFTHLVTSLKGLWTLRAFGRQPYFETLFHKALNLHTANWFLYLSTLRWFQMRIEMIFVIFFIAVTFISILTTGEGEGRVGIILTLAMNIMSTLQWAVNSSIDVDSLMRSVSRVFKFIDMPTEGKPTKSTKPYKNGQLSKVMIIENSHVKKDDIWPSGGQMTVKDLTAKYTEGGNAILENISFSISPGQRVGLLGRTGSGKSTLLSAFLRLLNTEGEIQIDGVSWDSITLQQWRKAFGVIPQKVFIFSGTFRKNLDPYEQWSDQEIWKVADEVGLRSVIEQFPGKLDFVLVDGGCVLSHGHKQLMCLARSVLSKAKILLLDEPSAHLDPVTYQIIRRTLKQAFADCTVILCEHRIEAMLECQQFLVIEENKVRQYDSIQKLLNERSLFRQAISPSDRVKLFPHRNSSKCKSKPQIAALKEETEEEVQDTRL

By EC50 is commonly meant the midpoint of the concentration-response curve. Broadly, the Emax is the greatest response seen or fitted, relative to the assay's reference. With `O=C(NS(=O)(=O)c1cccc2ccccc12)C1(c2ccccc2)COc2ccccc21` (centres unmarked) [Example 6, N-(naphthalene-1-sulfonyl)-3-phenyl-2,3-dihydro-1-benzofuran-3-carboxamide], the “Maximum % activity (with co-corrector)” value is listed as “+++ (≥350)”. The EC50 under setting [1] is less than 3 µM. This molecule also had an Emax under setting [2] of 50 to 150%. For the same molecule, the half-maximal effective concentration (EC50) under setting [3] was less than 3 µM.
For `O=C(NS(=O)(=O)c1cccc2ccccc12)C1CCOc2c(Cl)cccc21` (centres unmarked) [Example 7, 8-chloro-N-(naphthalene-1-sulfonyl)-3,4-dihydro-2H-1-benzopyran-4-carboxamide], the “Maximum % activity (with co-corrector)” value is “+++ (≥350)”. Further, the EC50 under setting [1] was 3 to 10 µM. This molecule registered an Emax under setting [2] of no less than 150%. Besides, the EC50 under setting [3] was in the range of 3 to 10 µM.
As for `CCC1(C(=O)NS(=O)(=O)c2cccc3ccccc23)COc2cccc(OC)c21` (centres unmarked) [Example 8, 3-ethyl-4-methoxy-N-(naphthalene-1-sulfonyl)-2,3-dihydro-1-benzofuran-3-carboxamide], the “Maximum % activity (with co-corrector)” value is on record as “+++ (≥350)”. Further, the EC50 under setting [1] lay in the range of 3 to 10 µM. Under setting [2], this molecule registered an Emax of no less than 150%. Under setting [3], the EC50 is less than 3 µM.
As to `COc1cccc2c1C(C(=O)NS(=O)(=O)c1cccc3ccccc13)CCO2` (centres unmarked) [Example 9, 5-methoxy-N-(naphthalene-1-sulfonyl)-3,4-dihydro-2H-1-benzopyran-4-carboxamide], the “Maximum % activity (with co-corrector)” value is recorded as “+++ (≥350)”. Moreover, the EC50 under setting [1] is 3 to 10 µM. Further, under setting [2], the Emax is no less than 150%. Under setting [3], the EC50 was 3 to 10 µM.
On to `CCC1(C(=O)NS(=O)(=O)c2cccc3ccccc23)CCOc2cccc(OC)c21` (centres unmarked) [Example 10, 4-ethyl-5-methoxy-N-(naphthalene-1-sulfonyl)-3,4-dihydro-2H-1-benzopyran-4-carboxamide], for which the “Maximum % activity (with co-corrector)” value is recorded as “+++ (≥350)”. Besides, the EC50 under setting [1] is less than 3 µM. The molecule further had an Emax under setting [2] of no less than 150%. Also, under setting [3], the EC50 was less than 3 µM.
In the case of `COc1ccc(Br)c2c1C(C(=O)NS(=O)(=O)c1cccc3ccccc13)CCO2` (centres unmarked) [Example 11, 8-bromo-5-methoxy-N-(naphthalene-1-sulfonyl)-3,4-dihydro-2H-1-benzopyran-4-carboxamide], the “Maximum % activity (with co-corrector)” value was “+++ (≥350)”. The EC50 under setting [1] was less than 3 µM. Under setting [2], the Emax was no less than 150%. The EC50 under setting [3] is less than 3 µM.
For the molecule `COc1c(Br)cc(Br)c2c1C(C(=O)NS(=O)(=O)c1cccc3ccccc13)CCO2` (centres unmarked) [Example 12, 6,8-dibromo-5-methoxy-N-(naphthalene-1-sulfonyl)-3,4-dihydro-2H-1-benzopyran-4-carboxamide], the “Maximum % activity (with co-corrector)” value is recorded as “+++ (≥350)”. Besides, under setting [1], the EC50 was in the range of 3 to 10 µM. Under setting [2], this molecule returned an Emax of no less than 150%. For the same molecule, the EC50 under setting [3] was in the range of 3 to 10 µM.
Turning to `COc1ccc(C2CCC2)c2c1C(C(=O)NS(=O)(=O)c1cccc3ccccc13)CCO2` (centres unmarked) [Example 13, 8-cyclobutyl-5-methoxy-N-(naphthalene-1-sulfonyl)-3,4-dihydro-2H-1-benzopyran-4-carboxamide], the “Maximum % activity (with co-corrector)” value is “+++ (≥350)”. Moreover, the EC50 under setting [1] is less than 3 µM. Also, under setting [2], the Emax was no less than 150%. Also, the EC50 under setting [3] was less than 3 µM.
Regarding `COc1ccc(C2CCCC2)c2c1C(C(=O)NS(=O)(=O)c1cccc3ccccc13)CCO2` (centres unmarked) [Example 14, 8-cyclopentyl-5-methoxy-N-(naphthalene-1-sulfonyl)-3,4-dihydro-2H-1-benzopyran-4-carboxamide], the “Maximum % activity (with co-corrector)” value is given as “+++ (≥350)”. Also, under setting [1], the EC50 was less than 3 µM. Moreover, under setting [2], the Emax was no less than 150%. Also, the EC50 under setting [3] is less than 3 µM.
With `CCC1(C(=O)NS(=O)(=O)c2cccc3ccccc23)COc2c(OC)cccc21` (centres unmarked) [Example 15, 3-ethyl-7-methoxy-N-(naphthalene-1-sulfonyl)-2,3-dihydro-1-benzofuran-3-carboxamide], the “Maximum % activity (with co-corrector)” value is “+++ (≥350)”. Besides, under setting [1], the EC50 lay within 3 to 10 µM. Moreover, the Emax under setting [2] was 50 to 150%. The EC50 under setting [3] is 3 to 10 µM.
Consider `Cc1ccccc1S(=O)(=O)NC(=O)C1(C)Cc2ccccc2O1` (centres unmarked) [Example 16, 2-methyl-N-(2-methylbenzene-1-sulfonyl)-2,3-dihydro-1-benzofuran-2-carboxamide], for which the “Maximum % activity (with co-corrector)” value is “+ (<150)”. Under setting [1], the EC50 is no less than 10 µM. Also, under setting [2], the Emax was less than 50%. The EC50 under setting [3] is no less than 10 µM.
For `Cc1ccccc1S(=O)(=O)NC(=O)C1Cc2ccccc2O1` (centres unmarked) [Example 17, N-(2-methylbenzene-1-sulfonyl)-2,3-dihydro-1-benzofuran-2-carboxamide], the “Maximum % activity (with co-corrector)” value is reported as “+ (<150)”. Further, under setting [1], the EC50 was no less than 10 µM. The molecule further came in with an Emax under setting [2] of less than 50%. Besides, the EC50 under setting [3] is no less than 10 µM.
As to `Cc1ccc2c(c1)C(C(=O)NS(=O)(=O)c1cccc3ccccc13)(c1ccccc1)CCO2` (centres unmarked) [Example 18, 6-methyl-N-(naphthalene-1-sulfonyl)-4-phenyl-3,4-dihydro-2H-1-benzopyran-4-carboxamide], the “Maximum % activity (with co-corrector)” value is “+++ (≥350)”. Moreover, under setting [1], the EC50 fell in the range of 3 to 10 µM. In addition, under setting [2], the Emax lay in the range of 50 to 150%. Also, the 50% effective concentration (EC50) under setting [3] is less than 3 µM.
As to `O=C(NS(=O)(=O)c1cccc2ccccc12)C1(c2ccccc2)CCOc2ccc(Cl)cc21` (centres unmarked) [Example 19, 6-chloro-N-(naphthalene-1-sulfonyl)-4-phenyl-3,4-dihydro-2H-1-benzopyran-4-carboxamide], the “Maximum % activity (with co-corrector)” value is listed as “+++ (≥350)”. Besides, the EC50 under setting [1] was in the range of 3 to 10 µM. For the same molecule, the Emax under setting [2] is no less than 150%. For the same molecule, the EC50 under setting [3] lay within 3 to 10 µM.
For `COc1cccc2c1C(C(=O)NS(=O)(=O)c1cccc3ccccc13)CO2` (centres unmarked) [Example 20, 4-methoxy-N-(naphthalene-1-sulfonyl)-2,3-dihydro-1-benzofuran-3-carboxamide], the “Maximum % activity (with co-corrector)” value is “++ (≥150 and <350)”. Besides, the EC50 under setting [1] was in the range of 3 to 10 µM. The Emax under setting [2] is less than 50%. The EC50 under setting [3] was less than 3 µM.
Take `O=C(NS(=O)(=O)c1cccc2ccccc12)C1COc2c(Br)cccc21` (centres unmarked) [Example 21, 7-bromo-N-(naphthalene-1-sulfonyl)-2,3-dihydro-1-benzofuran-3-carboxamide]: the “Maximum % activity (with co-corrector)” value was “++ (≥150 and <350)”. Further, the EC50 under setting [1] is 3 to 10 µM. The same molecule had an Emax under setting [2] of 50 to 150%. Further, the EC50 under setting [3] was in the range of 3 to 10 µM.
Turning to `CCC1(C(=O)NS(=O)(=O)c2cccc3ccccc23)COc2c(Br)cccc21` (centres unmarked) [Example 22, 7-bromo-3-ethyl-N-(naphthalene-1-sulfonyl)-2,3-dihydro-1-benzofuran-3-carboxamide], the “Maximum % activity (with co-corrector)” value is “+++ (≥350)”. The EC50 under setting [1] fell in the range of 3 to 10 µM. Under setting [2], this molecule had an Emax of no less than 150%. In addition, the EC50 under setting [3] fell in the range of 3 to 10 µM.
